The text below walks through data of patent publication US7202048B2, “Onset of force development as a marker of thrombin generation” (Hemodyne, Inc., priority 2002, dated 2007).

What all share (format): cell-based, human
In assay [1] the test system is normal whole blood. Nature of the assay: Clot elastic modulus (CEM) in batroxobin/calcium-clotted whole blood (Hemodyne). Conditions: 1200 seconds. Here is the method: (§1) The patients and normal controls in this study were enrolled under a series of protocols approved by the Institutional Review Board for Human Studies of Virginia Commonwealth University. Written consent was obtained from each volunteer. Blood was obtained via aseptic venipuncture into evacuated tubes containing 3.2% sodium citrate.
(§2) Whole blood clot formation was induced by the addition of CaCl2 or a combination of CaCl2 and batroxobin (0.21 μg/ml). Platelet contractile force development and clot elastic modulus were measured for 1200 seconds.
Clot elastic modulus was measured by applying a downward force of known magnitude to the upper plate of the Hemodyne apparatus (9). The amount of downward displacement caused by the force was measured. The ratio of downward force (stress) to downward displacement (strain) was used to calculate the elastic modulus. Stress equals the force applied divided by the area of application and strain is the degree of shape change induced by the applied force.

In assay [2] the test system is normal whole blood. Nature of the assay: Thrombin generation time (TGT), onset of PCF after calcium and batroxobin. The procedure:
FIG. 1. Determination of the thrombin generation time (TGT) from the kinetics of platelet contractile force (PCF) development after addition of calcium (10 mM final) and batroxobin (0.21 μg/ml final) to 700 μl of citrated (3.2%) whole blood at time zero. The TGT is taken to be the initial inflection point of the PCF curve, ie. the moment the PCF first begins to increase.
as §1, §2
Citrated blood clotted with batroxobin, or other similar enzymes (e.g., reptilase), and calcium develops PCF. […] During this time period, thrombin is generated by re-calcification. Since the fibrin network is in place prior to the generation of thrombin, PCF becomes apparent as soon as a small amount of thrombin is generated (FIG. 1). Thus, the inflection or take off point in the PCF curve serves as a marker of thrombin generation in the batroxobin mediated assay. For ease in identification, the first derivative of the curve in FIG. 1 will provide a sharp break where the curve increases (TGT being at the spike). The instrumentation used for the analysis, such as that shown in FIG. 9, can provide the output of FIG. 1 or the first derivative for identification of TGT, or, alternatively, the output could simply be an indicator light array indicating when the TGT is in the normal range or outside of the normal range.
We designate the time between calcium addition and initial PCF development the Thrombin Generation Time (TGT). Similar results can be obtained without using a snake venom enzyme if one simply recalcifies the plasma sample. Since thrombin generation must be followed by fibrin clot formation before PCF can begin to occur in the recalcification assay, the lag phase tends to be longer and more variable. Similar assays termed reptilase clot retractions were shown in the early seventies to be sensitive to a variety of antiplatelet and anticoagulant agents (10).

The subject of assay [3] is normal whole blood. The assay can be described thus: Platelet contractile force (PCF) in batroxobin/calcium-clotted whole blood (Hemodyne). Conditions: for PCF: 1200 seconds. Here is the method: as §1, §2
The Hemodyne® hemostasis analyzer (Hemodyne, Inc., Richmond, Va., USA) measures forces generated by platelets within a clot formed between a thermostated cup and parallel upper plate (7,8). Before clotting, the upper plate is centered above the cup and lowered into the sample. As the clot forms, it attaches to the inner walls of the cup and the bottom of the upper plate. The entire sample volume is contained between the upper and lower surfaces. Once fibrin is formed, platelets within the network pull fibrin strands inward transmitting force through the network to the surfaces to which the clot is adherent. Force measurement is accomplished utilizing a transducer coupled to the upper plate. As platelets contract, the transducer produces an electrical output proportional to the amount of force generated. The transducer output is continuously recorded.

The mark [4] stands for this setting: 0.165 U/ml added to normal whole blood.
Setting [5] is: 0.330 U/ml added to normal whole blood.
The mark [6] stands for this setting: 0.660 U/ml added to normal whole blood.
Where [7] appears, read: 1.320 U/ml added to normal whole blood.
Where [8] appears, read: increasing concentrations in normal whole blood.
[9] abbreviates: bivalirudin 3.5 μg/ml in normal whole blood.

Entries after “also recorded” stand apart in the source; their conditions may differ.

For the substance Hirudin, the CEM in assay [1] (setting [4]) stood at 12.34 Kdynes/cm^2; in assay [1] (setting [5]), 11.21 Kdynes/cm^2; in assay [1] (setting [6]), 6.50 Kdynes/cm^2; in assay [1] (setting [7]), 0.73 Kdynes/cm^2. Further, the TGT in assay [2] (setting [4]) is 420 s; in assay [2] (setting [5]) it was 480 s; in assay [2] (setting [6]), 560 s; in assay [2] (setting [7]), over 1200 s. Further, in assay [2] (setting [8]), the “Effect on TGT” value is “prolongs; also recorded: dose depend prolongation”. For the same substance, the PCF in assay [3] (setting [4]) came out at 4.01 Kdynes; in assay [3] (setting [5]), 3.57 Kdynes; in assay [3] (setting [6]) it was 1.80 Kdynes; in assay [3] (setting [7]), 0.70 Kdynes. In addition, the “Effect on PCF” value in assay [3] (setting [8]) is “declines; also recorded: reduction”.

bivalirudin: the “Effect on TGT” value in assay [2] (setting [9]) is on record as “prolongs”. Also, in assay [3] (setting [9]), the “Effect on PCF” value is recorded as “lower; also recorded: decreases”.
